Laboratory results reported in the supplement of paper PMC10307832.

Columns and labels:
Assay in all cases: relative viability (nuclei count vs DMSO), 5 days (fraction); higher = more cells survive
H3255 = test system: H3255
In short: (§1)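 Cells from lung cancer lines were seeded into 1536-well plates and, one day later, dosed by pin tool. Treatments were either a single drug or a fixed dose of an anchor drug with five library-drug doses (not always all listed) in √10 steps. After 5 days, nuclei were stained in a one-step fixation (final 0.05% Triton X-100, 1% formaldehyde, 1 ug/ml Hoechst) and counted on 4× images, and relative viability is the treated-to-vehicle nuclei ratio, as the median of duplicate plates.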

NCI-H1915 = test system: NCI-H1915
In short: as §1

LXF-289 = test system: LXF-289
In short: as §1

A-427 = test system: A-427
In short: as §1

SK-MES-1 = test system: SK-MES-1
In short: as §1

NCI-H522 = test system: NCI-H522
In short: as §1

NCI-H2087 = test system: NCI-H2087
In short: as §1

SW 1573 = test system: SW 1573
In short: as §1

NCI-H1793 = test system: NCI-H1793
In short: as §1

NCI-H1975 = test system: NCI-H1975
In short: as §1

NCI-H2170 = test system: NCI-H2170
In short: as §1

LOU-NH91 = test system: LOU-NH91
In short: as §1

SW 900 = test system: SW 900
In short: as §1

NCI-H358 = test system: NCI-H358
In short: as §1

HCC-44 = test system: HCC-44
In short: as §1

NCI-H520 = test system: NCI-H520
In short: as §1

HCC-827 = test system: HCC-827
In short: as §1

COR-L 105 = test system: COR-L 105
In short: as §1

LCLC-103H = test system: LCLC-103H
In short: as §1

NCI-H2023 = test system: NCI-H2023
In short: as §1

NCI-H1944 = test system: NCI-H1944
In short: as §1

NCI-H1993 = test system: NCI-H1993
In short: as §1

Question: With CCNC(=O)c1noc(-c2cc(C(C)C)c(O)cc2O)c1-c1ccc(CN2CCOCC2)cc1 [Luminespib] + Cc1cc(Nc2cc(N3CCN(C)CC3)nc(Sc3ccc(NC(=O)C4CC4)cc3)n2)n[nH]1 [Tozasertib] (partner 0.1 µM) as the compound, how does the relative viability (H3255; first compound 0.002 µM) read?
Answer: 0.7

Question: And the relative viability (H3255; first compound 0.006325 µM)?
Answer: 0.69

Question: And the relative viability (H3255; first compound 0.06325 µM)?
Answer: 0.7

Question: What about the relative viability (H3255; first compound 0.2 µM) of the same compound?
Answer: 0.25

Question: What about the relative viability (NCI-H1915; first compound 0.002 µM) of the same compound?
Answer: 0.449

Question: What about the relative viability (NCI-H1915; first compound 0.006325 µM) of the same compound?
Answer: 0.518

Question: What about the relative viability (NCI-H1915; first compound 0.02 µM) of the same compound?
Answer: 0.377

Question: What about the relative viability (NCI-H1915; first compound 0.06325 µM) of the same compound?
Answer: 0.364

Question: And the relative viability (NCI-H1915; first compound 0.2 µM)?
Answer: 0.187

Question: And the relative viability (LXF-289; first compound 0.002 µM)?
Answer: 0.225

Question: And the relative viability (LXF-289; first compound 0.006325 µM)?
Answer: 0.216

Question: What about the relative viability (LXF-289; first compound 0.02 µM) of the same compound?
Answer: 0.222

Question: What about the relative viability (LXF-289; first compound 0.06325 µM) of the same compound?
Answer: 0.141

Question: What about the relative viability (LXF-289; first compound 0.2 µM) of the same compound?
Answer: 0.0935

Question: What about the relative viability (A-427; first compound 0.002 µM) of the same compound?
Answer: 0.218

Question: And the relative viability (A-427; first compound 0.006325 µM)?
Answer: 0.204

Question: What about the relative viability (A-427; first compound 0.02 µM) of the same compound?
Answer: 0.151

Question: And the relative viability (A-427; first compound 0.06325 µM)?
Answer: 0.226

Question: And the relative viability (A-427; first compound 0.2 µM)?
Answer: 0.134

Question: What about the relative viability (SK-MES-1; first compound 0.002 µM) of the same compound?
Answer: 0.822

Question: What about the relative viability (SK-MES-1; first compound 0.006325 µM) of the same compound?
Answer: 0.849

Question: And the relative viability (SK-MES-1; first compound 0.02 µM)?
Answer: 1.01

Question: And the relative viability (SK-MES-1; first compound 0.06325 µM)?
Answer: 0.144

Question: And the relative viability (SK-MES-1; first compound 0.2 µM)?
Answer: 0.159

Question: What about the relative viability (NCI-H522; first compound 0.002 µM) of the same compound?
Answer: 0.621

Question: And the relative viability (NCI-H522; first compound 0.006325 µM)?
Answer: 0.545

Question: And the relative viability (NCI-H522; first compound 0.02 µM)?
Answer: 0.512

Question: And the relative viability (NCI-H522; first compound 0.06325 µM)?
Answer: 0.584

Question: What about the relative viability (NCI-H522; first compound 0.2 µM) of the same compound?
Answer: 0.512

Question: And the relative viability (NCI-H2087; first compound 0.002 µM)?
Answer: 0.26

Question: And the relative viability (NCI-H2087; first compound 0.006325 µM)?
Answer: 0.29

Question: What about the relative viability (NCI-H2087; first compound 0.02 µM) of the same compound?
Answer: 0.243

Question: What about the relative viability (NCI-H2087; first compound 0.06325 µM) of the same compound?
Answer: 0.113

Question: What about the relative viability (NCI-H2087; first compound 0.2 µM) of the same compound?
Answer: 0.0985

Question: What about the relative viability (SW 1573; first compound 0.002 µM) of the same compound?
Answer: 0.199

Question: And the relative viability (SW 1573; first compound 0.006325 µM)?
Answer: 0.175

Question: What about the relative viability (SW 1573; first compound 0.02 µM) of the same compound?
Answer: 0.173

Question: And the relative viability (SW 1573; first compound 0.06325 µM)?
Answer: 0.113

Question: And the relative viability (SW 1573; first compound 0.2 µM)?
Answer: 0.0892

Question: What about the relative viability (NCI-H1793; first compound 0.002 µM) of the same compound?
Answer: 0.345

Question: What about the relative viability (NCI-H1793; first compound 0.006325 µM) of the same compound?
Answer: 0.346

Question: And the relative viability (NCI-H1793; first compound 0.02 µM)?
Answer: 0.296

Question: What about the relative viability (NCI-H1793; first compound 0.06325 µM) of the same compound?
Answer: 0.307

Question: What about the relative viability (NCI-H1793; first compound 0.2 µM) of the same compound?
Answer: 0.13

Question: And the relative viability (NCI-H1975; first compound 0.002 µM)?
Answer: 0.759

Question: What about the relative viability (NCI-H1975; first compound 0.006325 µM) of the same compound?
Answer: 0.745

Question: And the relative viability (NCI-H1975; first compound 0.02 µM)?
Answer: 0.603

Question: And the relative viability (NCI-H1975; first compound 0.06325 µM)?
Answer: 0.1

Question: What about the relative viability (NCI-H1975; first compound 0.2 µM) of the same compound?
Answer: 0.093

Question: What about the relative viability (NCI-H2170; first compound 0.002 µM) of the same compound?
Answer: 0.72

Question: And the relative viability (NCI-H2170; first compound 0.006325 µM)?
Answer: 0.737

Question: And the relative viability (NCI-H2170; first compound 0.02 µM)?
Answer: 0.398

Question: What about the relative viability (NCI-H2170; first compound 0.06325 µM) of the same compound?
Answer: 0.299

Question: What about the relative viability (NCI-H2170; first compound 0.2 µM) of the same compound?
Answer: 0.158

Question: And the relative viability (LOU-NH91; first compound 0.002 µM)?
Answer: 0.685

Question: What about the relative viability (LOU-NH91; first compound 0.006325 µM) of the same compound?
Answer: 0.664

Question: What about the relative viability (LOU-NH91; first compound 0.02 µM) of the same compound?
Answer: 0.428

Question: What about the relative viability (LOU-NH91; first compound 0.06325 µM) of the same compound?
Answer: 0.265

Question: What about the relative viability (LOU-NH91; first compound 0.2 µM) of the same compound?
Answer: 0.282

Question: What about the relative viability (SW 900; first compound 0.002 µM) of the same compound?
Answer: 0.638

Question: And the relative viability (SW 900; first compound 0.006325 µM)?
Answer: 0.623

Question: And the relative viability (SW 900; first compound 0.02 µM)?
Answer: 0.591

Question: What about the relative viability (SW 900; first compound 0.06325 µM) of the same compound?
Answer: 0.15

Question: And the relative viability (SW 900; first compound 0.2 µM)?
Answer: 0.117

Question: And the relative viability (NCI-H358; first compound 0.002 µM)?
Answer: 0.0938

Question: And the relative viability (NCI-H358; first compound 0.006325 µM)?
Answer: 0.115

Question: What about the relative viability (NCI-H358; first compound 0.02 µM) of the same compound?
Answer: 0.104

Question: And the relative viability (NCI-H358; first compound 0.06325 µM)?
Answer: 0.0661

Question: And the relative viability (NCI-H358; first compound 0.2 µM)?
Answer: 0.0636

Question: What about the relative viability (HCC-44; first compound 0.002 µM) of the same compound?
Answer: 1.01

Question: What about the relative viability (HCC-44; first compound 0.006325 µM) of the same compound?
Answer: 0.766

Question: And the relative viability (HCC-44; first compound 0.02 µM)?
Answer: 0.99

Question: And the relative viability (HCC-44; first compound 0.06325 µM)?
Answer: 0.169

Question: And the relative viability (HCC-44; first compound 0.2 µM)?
Answer: 0.159

Question: And the relative viability (NCI-H520; first compound 0.002 µM)?
Answer: 0.404

Question: And the relative viability (NCI-H520; first compound 0.006325 µM)?
Answer: 0.449

Question: What about the relative viability (NCI-H520; first compound 0.02 µM) of the same compound?
Answer: 0.345

Question: And the relative viability (NCI-H520; first compound 0.06325 µM)?
Answer: 0.195

Question: What about the relative viability (NCI-H520; first compound 0.2 µM) of the same compound?
Answer: 0.221

Question: What about the relative viability (HCC-827; first compound 0.002 µM) of the same compound?
Answer: 0.425

Question: What about the relative viability (HCC-827; first compound 0.006325 µM) of the same compound?
Answer: 0.465

Question: What about the relative viability (HCC-827; first compound 0.02 µM) of the same compound?
Answer: 0.398

Question: And the relative viability (HCC-827; first compound 0.06325 µM)?
Answer: 0.41

Question: And the relative viability (HCC-827; first compound 0.2 µM)?
Answer: 0.193

Question: And the relative viability (COR-L 105; first compound 0.002 µM)?
Answer: 0.37

Question: And the relative viability (COR-L 105; first compound 0.006325 µM)?
Answer: 0.385

Question: What about the relative viability (COR-L 105; first compound 0.02 µM) of the same compound?
Answer: 0.232

Question: And the relative viability (COR-L 105; first compound 0.06325 µM)?
Answer: 0.465

Question: And the relative viability (COR-L 105; first compound 0.2 µM)?
Answer: 0.191

Question: What about the relative viability (LCLC-103H; first compound 0.002 µM) of the same compound?
Answer: 0.47

Question: And the relative viability (LCLC-103H; first compound 0.006325 µM)?
Answer: 0.455

Question: What about the relative viability (LCLC-103H; first compound 0.02 µM) of the same compound?
Answer: 0.44

Question: And the relative viability (LCLC-103H; first compound 0.06325 µM)?
Answer: 0.497

Question: What about the relative viability (LCLC-103H; first compound 0.2 µM) of the same compound?
Answer: 0.308

Question: And the relative viability (NCI-H2023; first compound 0.002 µM)?
Answer: 0.395

Question: What about the relative viability (NCI-H2023; first compound 0.006325 µM) of the same compound?
Answer: 0.389

Question: What about the relative viability (NCI-H2023; first compound 0.02 µM) of the same compound?
Answer: 0.343

Question: And the relative viability (NCI-H2023; first compound 0.06325 µM)?
Answer: 0.0657

Question: And the relative viability (NCI-H2023; first compound 0.2 µM)?
Answer: 0.0748

Question: What about the relative viability (NCI-H1944; first compound 0.002 µM) of the same compound?
Answer: 0.253

Question: And the relative viability (NCI-H1944; first compound 0.006325 µM)?
Answer: 0.256

Question: What about the relative viability (NCI-H1944; first compound 0.02 µM) of the same compound?
Answer: 0.22

Question: And the relative viability (NCI-H1944; first compound 0.06325 µM)?
Answer: 0.197

Question: And the relative viability (NCI-H1944; first compound 0.2 µM)?
Answer: 0.22

Question: And the relative viability (NCI-H1993; first compound 0.002 µM)?
Answer: 0.539

Question: And the relative viability (NCI-H1993; first compound 0.006325 µM)?
Answer: 0.6

Question: And the relative viability (NCI-H1993; first compound 0.02 µM)?
Answer: 0.533

Question: And the relative viability (NCI-H1993; first compound 0.06325 µM)?
Answer: 0.5

Question: What about the relative viability (NCI-H1993; first compound 0.2 µM) of the same compound?
Answer: 0.437
